Reference: patent publication US6790936B1, “CAI resistance proteins and uses thereof” (The United States of America as represented by the …, priority 1994, dated 2004)

Legend:
Format in all cases: cell-based, human
[1] = tested on: CAIR-1; experiment: Northern analysis of CAIR-1 expression in A2058-20R versus parental A2058 cells; settings: A2058-20R (20 μM CAI) vs parental A2058 total RNA, compared to GAPDH housekeeping gene control
Excerpt: The subtracted probe was first hybridized against a Northern blot of total RNA from parental A2058 cells and CAI resistant A2058-20R cells. Increased expression of a number of transcripts was seen (FIG. 1, upper left panel). Re-hybridization of the blot with radiolabeled GAPDH as a housekeeping gene confirmed the […] (FIG. 1, lower left panel).
A cDNA library was constructed from A2058-20R cells by Stratagene (La Jolla, Calif., USA). The library was probed using standard approaches (Id.) and the positive probes were plaque purified. Forty-one clones were selected and 35 were determined to be nonoverlapping by restriction digest. Fifteen were randomly selected for determination of their expression by Northern analysis. Inserts were purified by low melting point agarose gel electrophoresis and then radiolabeled with standard random primer conditions (Amersham, Little Chalfont, Bucks, United Kingdom) and hybridized with a Northern of parental (wildtype) total RNA and RNA from A2058-20R cells. […] The CAIR-1 cDNA (clone 21DBB insert) was sequenced using standard dideoxy-sequencing (SequenaseII kit) with 35S-dATP label. The cDNA sequence is shown in Seq. Id No. 1.

[2] = tested on: A2058 CAI resistant cells; experiment: Culture of CAI resistant cells (A2058); settings: chronic culture under continuous CAI, 10, 20, 30 and 40 μM
Procedure: (§1) Low passage (passage 13) parental human melanoma cells (A2058), and human ovarian cancer cells (OVCAR3) were cultured in Dulbecco's Modified Eagles medium (DMEM) supplemented with 10% fetal calf serum (FCS) and pen/strep (penicillin and streptomycin). Over a period of 24 to 30 months, the cells were incubated with increasing concentrations of CAI starting with 0.1 μM and reaching 45 μM. The CAI, obtained from the Developmental Therapeutics Program of the National Cancer Institute, was dissolved in DMSO and aliquots were stored at −70° C. until used. The diluted CAI was added directly into the media as required. Continuous selective pressure with CAI was maintained throughout culture and was maintained throughout all experiments.
No overt differences in morphology of the A2058 CAI resistant cells was observed.

[3] = tested on: OVCAR3 cells; experiment: Culture of CAI resistant cells (OVCAR3); settings: cells chronically resistant to 10 μM and 20 μM CAI
Procedure: as §1, with “experiments. OVCAR3 cells chronically resistant to 10 μM and 20 μM CAI were also established.” for “experiments.”

NC(=O)c1nnn(Cc2cc(Cl)c(C(=O)c3ccc(Cl)cc3)c(Cl)c2)c1N [CAI, Carboxyamido-triazole]
increased expression of CAIR-1 cDNA (clone 21DBB) in response to culture with CAI [1]: 3.8 fold
growth rate of A2058 CAI resistant cells [2]: not attenuated until the 40 μM treatment in which it decreased somewhat
growth rates of OVCAR3 cells in the CAI treatments [3]: slightly lower growth rates
